Tests used:
[1] = system: cardiac beta-adrenoceptors; test: Experiment A: blockade of isoprenaline induced heart rate response, i.v. bolus of test compound, reserpinized anaesthetized cat; assay type: in vivo; conditions: i.v. bolus injection during isoprenaline infusion, reserpine pretreated, pentobarbital anaesthetized, vagotomized cats
Procedure: (§1) A bilateral vagotomy was performed in the neck. […] The perfusion pressure (PP) was recorded.
For each dose of the test compound the peak reduction of the isoprenaline heart rate response was expressed as per cent blockade according to the formula: [formula]
(§2) Per cent blockade (for each dose) was then plotted against log dose of the test compound. The ED:50 value (i.e. the dose which produced half maximal blockade) was interpolated.

[2] = Experiment A: plasma half life estimated by the method of Levy from time to 50% recovery of the blockade; conditions: cat, iv
Procedure: (§8) All compounds were thereby tested in two different experimental models but with the same species, premedication and preparation. Cats (males and females weighing 2.5-3.5 kg) were pretreated with reserpine (5 mg/kg bodyweight administered intraperitoneally) about 16 hours before the experiments. The animals were pretreated with reserpine in order to eliminate the endogenous sympathetic control of heart rate and vascular smooth muscle tone. The cats were anaesthetized with pentobarbital (30 mg/kg bodyweight administered i.p.) and artificially ventilated with room air. A bilateral vagotomy was performed in the neck. Blood pressure was obtained from a cannulated carotid artery and heart rate was recorded from a cardiotachometer, triggered by the oscillations in blood pressure. The femoral artery of one hind leg was cannulated in both directions. Blood taken from the proximal part was pumped, at a constant flowrate, back into the distal part of the artery by means of a roller pump (Watson-Marlow). The perfusion pressure (PP) was recorded. Changes in PP indicated changes in the peripheral vascular resistance of the leg.
(§9) The maximal heart rate and vasodilator responses to isoprenaline were established by injecting a high i.v. bolus dose of isoprenaline (2.0 µmol/kg). An isoprenaline infusion rate was then established which gave a heart rate response (at steady state) which was about 80% of the maximal heart rate response to isoprenaline. Usually this dose of isoprenaline was 0.25 µmol/kg x min. The vasodilator response to this dose of isoprenaline was also approximately 80% of maximal. The isoprenaline dose was then infused during periods of 20 minutes with an interval of 20 minutes between the infusion periods.
(§10) The test compound was administered as an intravenous bolus injection seven minutes after start of each isoprenaline infusion. The dose of the test compound was increased until total blockade of the isoprenaline responses was achieved.
(§11) The plasma half life was estimated by the method of Levy (Nagashima, R., O'Reilly, R. A. and Levy, G., Clin. Pharmacol. Ther., 10 (1969) 22). The time from the peak inhibitory effect of each dose until 50% recovery was determined and plotted against log dose of the compound. The slope of the line obtained was calculated with linear regression. The slope equals 2.303/KE where Ke is the rate constant for elimination. The plasma half life (t 1/2) was then calculated according to the relation t 1/2 = 0.693/KE.

[3] = system: vascular beta-adrenoceptors; test: Experiment B: blockade of isoprenaline induced vasodilatation, i.v. infusion of test compound; assay type: in vivo; conditions: i.v. infusion 12 minutes per dose, isoprenaline bolus 10 minutes after start, reserpine pretreated cats
Procedure: as §1
(§3) An isoprenaline bolus dose which gave a heart rate response which was about 80% of the maximal response was then tested out. Usually this dose of isoprenaline was 0.4 µmol/kg.
(§4) The test compound was then infused intravenously in increasing doses. Each dose was given during 12 minutes with an interval of 18 minutes between doses.
(§5) The control dose of isoprenaline was injected 10 minutes after start of each infusion of the test compound. The dose of the test compound was increased logarithmically until total blockade of the isoprenaline responses was achieved.
(§6) The inhibitory effect of each dose of the test compound was expressed as per cent blockade according to the formula: [formula]
(§7) Per cent blockade was then plotted against log dose of the blocker and the ED:50-value was interpolated (cf. above). The ED:50 for heart rate blockade and ED:50 for blockade of the vaso- dilatation could then be compared and the selectivity for the compound estimated. Intrinsic sympa- thomimetic activity was evaluated as the maximal heart rate elevation during infusion of the test compound.

[4] = system: cardiac beta-adrenoceptors; test: Experiment B: blockade of isoprenaline induced heart rate response, i.v. infusion of test compound; assay type: in vivo; conditions: i.v. infusion 12 minutes per dose, isoprenaline bolus 10 minutes after start, reserpine pretreated cats
Procedure: as §1, §3, §4, §5, §6, §7

[5] = system: vascular beta-adrenoceptors; test: Experiment A: blockade of isoprenaline induced vasodilatation (hind leg perfusion pressure), i.v. bolus of test compound; assay type: in vivo; conditions: i.v. bolus injection during isoprenaline infusion, reserpine pretreated cats
Procedure: A bilateral vagotomy was performed in the neck. […] The perfusion pressure (PP) was recorded. […]
as §2

in vivo = conditions: cat, iv
Procedure: as §8, §9, §10, §11

| SMILES | Blockade of isoprenaline induced effects Heart rate ED:50 [1] [µmol/kg] | half-life [2] [min] | Blockade of isoprenaline induced effects Vasodilatation ED:50 [3] [µmol/kg/min] | Blockade of isoprenaline induced effects Heart rate ED:50 [4] [µmol/kg/min] | Blockade of isoprenaline induced effects Vasodilatation ED:50 [5] [µmol/kg] | half-life (in vivo) [min] |
| --- | --- | --- | --- | --- | --- | --- |
| CCOC(=O)CCc1ccc(OCC(O)CNC(C)C)c(OCC)c1 (centres unmarked) [Ex. 22, ethyl 3-[3-ethoxy-4-(2-hydroxy-3-isopropylaminopropoxy)phenyl]propanoate] | 2.0 | 0.9 | 0.8 | 0.6 | >52 |  |
| CCOC(=O)CCc1ccc(OCC(O)CNC(C)C)c(Br)c1 (centres unmarked) [Ex. 20, ethyl 3-[3-bromo-4-(2-hydroxy-3-isopropylaminopropoxy)phenyl]propanoate] | 0.45 | 2.2 | >6.4 | 1.2 | >12.8 |  |
| CCOC(=O)CCCc1ccc(OCC(O)CNC(C)C)c(Br)c1 (centres unmarked) [Ex. 8, Ethyl 4-[3-bromo-4-(2-hydroxy-3-isopropylaminopropoxy)phenyl]butanoate] | 2.1 | ~8 | >6.4 | 1.2 | >17.0 |  |
| CCOC(=O)CCc1ccc(OCC(O)CNC(C)C)c(F)c1 (centres unmarked) [Ex. 25, ethyl 3-[3-fluoro-4-(2-hydroxy-3-isopropylaminopropoxy)phenyl]propanoate] | 0.6 | 0.9 | >6.4 | 2.1 | >12.8 |  |
| COC(=O)CCc1ccc(OCC(O)CNC(C)C)c(OC)c1 (centres unmarked) [Ex. 15, methyl 3-[4-(2-hydroxy-3-isopropylaminopropoxy)-3-methoxyphenyl]propanoate] | 0.9 | 1 | 18.0 | 1.9 | ~20.0 |  |
| COc1cc(CCC(=O)OC(C)C)ccc1OCC(O)CNC(C)C (centres unmarked) [Ex. 24, isopropyl 3-[4-(2-hydroxy-3-isopropylaminopropoxy)-3-methoxyphenyl]propanoate] | 1.2 | 2.1 |  |  | >12.8 |  |
| CC(C)NCC(O)COc1ccc(CCC(=O)OC(C)C)cc1 (centres unmarked) [Ex. 6, Isopropyl 3-[4-(2-hydroxy-3-isopropylaminopropoxy)phenyl]propanoate] | 1.7 | 3.5 | >6.4 | 0.9 | >12.8 |  |
| CCOC(=O)CCc1ccc(OCC(O)CNC(C)C)c(OC)c1 (centres unmarked) [Ex. 21, ethyl 3-[4-(2-hydroxy-3-isopropylaminopropoxy)-3-methoxyphenyl]propanoate] | 0.8 | 0.9 | >6.4 | 2.05 | >52 |  |
| COCCOC(=O)CCCc1ccc(OCC(O)CNC(C)C)cc1 (centres unmarked) [Ex. 4, 2-Methoxyethyl 4-[4-(2-hydroxy-3-isopropylaminopropoxy)phenyl]butanoate] | 3.0 | 1.7 | 2.3 | 1.1 | 51.8 |  |
| COC(=O)CCc1ccc(OCC(O)CNC(C)C)cc1 (centres unmarked) [Ex. 1, methyl 3-[4-(2-hydroxy-3.-isopropylaminopropoxy)phenyl]propanoate] | 2.3 |  | >25.6 | 3.6 | ~32.0 | 1 |
| CCOC(=O)CCc1ccc(OCC(O)CNC(C)C)cc1 (centres unmarked) [Ex. 2, Ethyl 3-[4-(2-hydroxy-3-isopropylaminopropoxy)-phenyl]propanoate] | 4.7 | 1 | 12.0 | 2.1 | >51.2 |  |
| CCOC(=O)CCc1ccc(OCC(O)CNC(C)C)c(Cl)c1 (centres unmarked) [Ex. 23, ethyl 3-[3-chloro-4-(2-hydroxy-3-isopropylaminopropoxy)phenyl]propanoate] | 1.8 | 1.8 |  |  | >52 |  |
| CCCOC(=O)CCc1ccc(OCC(O)CNC(C)C)cc1 (centres unmarked) [Ex. 5, Propyl 3-[4-(2-hydroxy-3-isopropylaminopropoxy)phenyl]propanoate] | ~20.0 | 0.3 | >25.6 | 9.0 | >51.2 |  |
| CCOC(=O)CCCc1ccc(OCC(O)CNC(C)C)cc1 (centres unmarked) [Ex. 7, Ethyl 4-[4-(2-hydroxy-3-isopropylaminopropoxy)phenyl]butanoate] | 1.8 | 3.3 | >6.4 | 1.5 | >51.0 |  |
| COCCOC(=O)CCc1ccc(OCC(O)CNC(C)C)cc1 (centres unmarked) [Ex. 3, 2-Methoxyethyl 3-[4-(2-hydroxy-3-isopropylaminopropoxy)phenyl]propanoate] | 26.0 | 1.5 | >25.6 | 1.3 | ~30.0 |  |

— EP0041491B1, “New para-substituted 3-phenoxy-1-alkylamino-propanol-2-s having beta receptor blocking properties” (priority 1980, dated 1981)
